Source: patent US12496297B1, “Compositions of autophagy modulating agents and uses thereof” (Washington University, priority 2020, dated 2025)

Experiments:
[1] = test system: C. elegans model of ATD (sGFP::ATZ); assay: Quantification of ATZ accumulation in C. elegans model of ATD (Z worm); format: in vivo; details: GB administered to ATD C. elegans model
Procedure: The C. elegans strain VK1882 (vkls1882 [nhx-2p::sGFP::ATZ; myo-2p::mCherry) was routinely cultured at 20° C. on nematode growth medium plates seeded with E. coli strain OP50. Quantitative analysis of ATZ accumulation was carried out by detection of fluorescence using the Thermofisher CellInsight CX-7 high content imager as previously described. L4 stage animals were placed into wells of 384-well plates (30 per well) containing G2 analogs or an equivalent volume of DMSO. Following incubation at 20° C. for 24 hours, sodium azide was added to a final concentration of […] to anesthetize the animals and then each well was imaged on the CX-7 high content imager for quantification.

[2] = test system: misfolded ATZ; assay: Autophagic degradation of ATZ in mammalian cell line model of ATD; format: cell-based; details: effect blocked when autophagy gene ATG14 was deleted

COc1ccc(Cl)cc1C(=O)NCCc1ccc(S(=O)(=O)NC(=O)NC2CCCCC2)cc1 [GB, 5-chloro-N-(4-(N-(cyclohexylcarbamoyl)sulfamoyl)phenethyl)-2-methoxybenzamide, reference compound]
accumulation of misfolded, aggregated ATZ [1]: reduced accumulation of misfolded, aggregated ATZ
autophagic degradation of misfolded ATZ [2]: enhances the autophagic degradation of misfolded ATZ
